Data on 1 compound can be found in US20230124142A1, “NEW THERAPEUTIC TARGETS WITH AN ANTI-INFLAMMATORY AND ANTI-INTERFERON EFFECT” (UNIVERSITÉ PARIS CITÉ, priority 2020, published 2023).

Series [1] has as its system monocytes of healthy donors. The series is described as follows: Intracellular TNFα production in monocytes after TLR7/8 (Resiquimod-R848) stimulation, flow cytometry. Format: cell-based, human. The settings on record: inhibitor 1 h before R848 (TLR7/8), 16 h, flow cytometry (FIG. 1, 2). As to the method: The cells were rinsed in PBS then incubated with a viability dye (Zombie Aqua, Biolegend) for 30 min at ambient temperature. After washing, the cells were resuspended in PBS containing 2% SVF and 2 mM EDTA then labelled with the APC Vio770 anti-CD14 (clone REA599) antibody from Miltenyi Biotec, used at 1/100°. […] Data acquisition was carried out on the […] flow cytometer using the Diva software (BD Biosciences, San Jose, Calif.). The Kaluza software was used to analyze the data.
On the technique in general: Flow cytometry measures light scatter and fluorescence of single cells or particles in a stream.

Series [2] concerns monocytes of healthy donors. The series is described as follows: Intracellular IL1β and TNFα in monocytes after inflammasome activation by uric acid crystals (MSU, gout model), flow cytometry. Format: cell-based, human. The settings on record: activation of the inflammasome by uric acid crystals (mimicking gout). As to the method:
The cells were rinsed in PBS then incubated with a viability dye (Zombie Aqua, Biolegend) for 30 min at ambient temperature. After washing, the cells were resuspended in PBS containing 2% SVF and 2 mM EDTA then labelled with the APC Vio770 anti-CD14 (clone REA599) antibody from Miltenyi Biotec, used at 1/100°. […] Data acquisition was carried out on the Canto II flow cytometer using the Diva software (BD Biosciences, San Jose, Calif.). The Kaluza software was used to analyze the data.

In series [3] the test system is human PBMCs. The series is described as follows: Interferons in supernatants of R848-stimulated PBMCs, STING-37 reporter cell line. Format: cell-based. The arrangement: dose or concentration left out as unconfirmed. The settings on record: inhibitor 1 h before R848, 24 h, STING-37 reporter (FIG. 17A).
Series [4] deals with NF-κB transcription factor. Put plainly: NF-κB transcription factor activity, supernatants of R848-stimulated PBMCs on THP1-Dual reporter line. Format: cell-based. The settings on record: human PBMCs, inhibitor 1 h before R848, 24 h, QUANTI-Blue (FIG. 17B). The procedure: The monocytes, T lymphocytes and B lymphocytes were cultured at 1·10^6/ml. […] The T lymphocytes were stimulated for 3 days with beads from the “Dynabeads human T activator CD3/CD28” kit from Thermo Fisher Scientific, following their instructions. […] The B lymphocytes were stimulated for 24 h with CpG-A t 1 μg/ml. […] The activity of the NF-κB transcription factor was measured by means of the THP1-Dual reporter cell line from Invivogen. […] The activity of the NF-κB transcription factor was measured with QUANTI-Blue, a detection agent […], following the supplier's recommendations.

For series [5], the system named is monocytes of healthy donors. Put plainly: TNFα, IL-1β and IL-6 production and viability of R848-activated purified monocytes, flow cytometry. Type of series: cell-based, human. As to the method: (§1) The monocytes, T lymphocytes and B lymphocytes were cultured at 1·10^6/ml. […] The T lymphocytes were stimulated for 3 days with beads from the “Dynabeads human T activator CD3/CD28” kit from Thermo Fisher Scientific, following their instructions. […] The B lymphocytes were stimulated for 24 h with CpG-A t 1 μg/ml. […] The cells were rinsed in PBS then incubated with a viability dye (Zombie Aqua, Biolegend) for 30 min at ambient temperature. After washing, the cells were resuspended in PBS containing 2% SVF and 2 mM EDTA. For the monocytes, an intracellular labelling of TNFα, IL-6 and IL-1β, with the “Inside Stain” kit (Miltenyi Biotec) was used following the manufacturer's protocol. […] Data acquisition was carried out on the Attune N×T flow cytometer from Thermo Fisher. The FlowJo software was used to analyze the data. For the T lymphocytes, the cells were suspended in PBS containing 2% SVF and 2 mM EDTA then labelled with the PE anti-CD69 and APC anti-CD3 antibody from Miltenyi Biotec, used at 1/100°. After incubation for 30 min, the cells were rinsed in PBS containing 2% SVF and 2 mM EDTA. Data acquisition was carried out on the Attune N×T flow cytometer from Thermo Fisher. The FlowJo software was used to analyze the data. […]

For series [6], the system named is T lymphocytes. The series is described as follows: CD69 expression and viability of T lymphocytes activated with CD3/CD28 beads, flow cytometry. Format: cell-based, human. To be noted: purified T lymphocytes, 3 days (FIG. 19). As to the method: as §1
In series [7] the test system is B lymphocytes. Put plainly: CD69 expression and viability of B lymphocytes activated with CpG-A (TLR9 ligand), flow cytometry. To be noted: purified B lymphocytes, 24 h (FIG. 20). Format: cell-based, human. As to the method:
as §1

In series [8] the test system is PBMCs of patients suffering from juvenile idiopathic arthritis. The series is described as follows: Transcription of TNFα and IL-6 genes in PBMCs of juvenile idiopathic arthritis patients, RT-qPCR. Type of series: cell-based, human. To be noted: inhibitor at 1 μM for 16 h, RT-qPCR (FIG. 21). In general terms: Quantitative PCR measures a nucleic acid by following its amplification.

For series [9], the system named is peripheral blood mononuclear cells (PBMCs). Put plainly: Cell toxicity on PBMCs, ATP quantification with CellTiter Glo. Format: cell-based, human. To be noted: cGAMP 24 h. Background: Cellular ATP, detected with luciferase, serves as a proxy for viable cell number.
For series [10], the system named is THP1-Dual human monocyte cell line. The series is described as follows: Cell toxicity on THP1-Dual, ATP quantification with CellTiter Glo. To be noted: cGAMP 24 h. Format: cell-based.
The test system of series [11] is neurones infected by the prions. Format: cell-based.
The test system of series [12] is activated immune cells. Put plainly: Secretion of inflammatory cytokines and interferons by activated immune cells placed in contact with ROCK inhibitor. Type of series: cell-based. To be noted: compared with activated immune cells not placed in contact with the inhibitor.
Series [13] relates to immune cells (PBMCs and purified monocytes) of healthy donors. The series is described as follows: Production of inflammatory cytokines by PBMCs and purified monocytes after TLR2/4 stimulation by bacterial agents. Format: cell-based, human. To be noted: TLR 2/4 stimulation by lipoteichoic acid/LPS.
Series [14] deals with THP1-Dual human monocyte cell line. The series is described as follows: Interferon response of cGAMP-activated THP1-Dual cells, luciferase. To be noted: inhibitor 1 h before cGAMP 3 μg/ml, 24 h, luciferase (FIG. 22B, 23B).
The test system of series [15] is peripheral blood mononuclear cells (PBMCs). The series is described as follows: Interferon production by cGAMP-activated PBMCs, STING-37 reporter cell line. The settings on record: inhibitor 1 h before cGAMP 3 μg/ml, 24 h, STING-37 reporter (FIG. 22A, 23A).
Series [16] has as its system HEK293 non-immune cell line. Put plainly: Interferon production by cGAMP-activated HEK293 non-immune cells (STING-37), luciferase. The settings on record: inhibitor at 1 and 5 μM (FIG. 22C).
The test system of series [17] is peripheral blood mononuclear cells (PBMCs) of healthy donors. Put plainly: Secretion of inflammatory cytokines and interferons by PBMCs after TLR7/8 (R848) stimulation, LegendPlex. To be noted: human PBMCs incubated with inhibitor before R848 stimulation.

For `C[C@@H](N)[C@H]1CC[C@H](C(=O)Nc2ccncc2)CC1` [Y27632], the “intracellular production of inflammatory cytokines (TNFα)” value in [1] was “inhibits, according to a dosage effect”. In addition, the “production of inflammatory cytokines” value in series [2] and in series [13] was “capable of inhibiting the production of inflammatory cytokines” throughout. In series [3], the “production of IFN induced by the stimulation of TLR7/8” value was “inhibits”. For the same compound, the “activation of the transcription factor of the NF-κB pathway induced by the stimulation of TLR7/8” value in series [4] is “inhibits”. In addition, in series [5] (inhibitor 1 h before R848 1 μg/ml, 6 h, flow cytometry (FIG. 18)), the “production of TNFα, IL-1β and IL-6 induced by R848” value is “inhibits, according to a dosage effect”. Moreover, in [5] (inhibitor 1 h before R848, 6 h (FIG. 18)), the “viability of the monocytes” value was “without affecting the viability”. Moreover, the “viability of the T lymphocytes” value in [6] (CD3/CD28 beads) was “without affecting the viability”. Further, the “expression of the CD69 marker at the surface of the T lymphocytes” value in series [6] (inhibitor at 1 and 5 μM, 1 h before CD3/CD28 beads) is listed as “inhibits, according to a dosage effect”. The “viability of the B lymphocytes” value in [7] (CpG-A) is on record as “without affecting the viability”. For the same compound, the “expression of the CD69 marker at the surface of the B lymphocytes” value in [7] (inhibitor at 1 μM, 1 h before CpG-A 1 μg/ml) is listed as “inhibits, according to a dosage effect”. Besides, the “transcription of the genes encoding TNFα and IL-6” value in series [8] is “inhibits the transcription”. Further, the “viability of the PBMCs” value in series [9] is on record as “without affecting the viability”. Also, the “viability of the THP1-Dual” value in series [10] is listed as “without affecting the viability”. Besides, the “level of TNFα in the culture medium” value in [11] is recorded as “re-establishes a “normal” level”. For the same compound, the “secretion of the inflammatory cytokines (TNFα, IL-1β, IL6, MCP1 (CCL2)) and of the interferons (IFN)” value in series [12] is “inhibits the secretion”. Besides, the “production of interferons (IFN) induced by the cGAMP” value in series [14] and in series [15] was “blocks the production of interferons (IFN) induced by the cGAMP according to a dosage effect starting from 1 μM” throughout. Moreover, the “production of interferon induced by the STING ligand” value in [16] is listed as “blocks in a limited manner”. Besides, the “production of TNFα and of pro-inflammatory cytokines such as IL-6, IL-1β and the interferons induced by the TLR7/8 stimulation” value in series [17] was “inhibits the production”.
